Test results as given in patent US12427134B2, “Methods of reducing the risk of cardiovascular events in a subject with atrial fibrillation and/or atrial flutter” (priority 2019, dated 2025).

Assays:
[1] = system: hypertriglyceridemic patients with cardiovascular disease or at high risk for cardiovascular disease; experiment: REDUCE-IT: bleeding-related adverse events (serious and any, by category, preferred term, antithrombotic medication, fatal association); type: in vivo
Excerpt: Adverse Events of Special Interest: Bleeding-related adverse events, glucose control (fasting blood glucose and HbA1c), and indicators of hepatic disorders (e.g., ALT or AST increases >3×ULN, total bilirubin increases of ≥2×ULN) were summarized separately and compared between treatment groups.
Due to the convergence of clinical events shortly before a patient's death, direct causality of an individual bleeding event with death cannot always be determined. Bleeding-related clinical events (i.e., TEAEs, SAEs, or positively adjudicated endpoints) that occurred proximal to death (per site Investigator, CEC, or Sponsor medical assessment) are presented in Table 82 and occurred in 23 (0.6%) patients in the AMR101 group and 34 (0.8%) patients in the placebo group, with no statistically significant difference between treatment groups (p=0.18). Sponsor medical assessment classified 20 (0.5%) patients in the AMR101 group and 23 (0.6%) patients in the placebo group as having a bleeding event that likely contributed to death, with no statistically significant difference between treatment groups (p=0.76). […] None of these 57 deaths were associated with study drug per Investigator assessment; one bleeding event in each treatment group was considered possibly related to study drug per Investigator assessment.
A summary of baseline or on-treatment anti-thrombic medication use by type in patients with serious bleeding events for the ITT population is provided in Tables 97A-97D.

[2] = system: hypertriglyceridemic patients with cardiovascular disease or at high risk for cardiovascular disease; experiment: REDUCE-IT: post hoc control group response analyses (placebo patients with biomarker increase vs no change/decrease); type: in vivo, human
Excerpt: The objective of the following example was to perform a control group analysis of the ischemic events in patients from the REDUCE-IT trial, as described in Example 1. The study focused on exploring if outcomes were affected by possible malabsorption. If mineral oil in the placebo might have negatively affected statin absorption in some patients, this could have contributed to differences in outcomes between the groups.

## CC/C=C\C/C=C\C/C=C\C/C=C\C/C=C\CCCC(=O)OCC [AMR101, eicosapentaenoic acid ethyl ester]
[1]; Safety population
  Bleeding event that did not likely contribute to death (Sponsor medical assessment), patients: 3 (0.1%) n (%)
  Bleeding event that likely contributed to death (Sponsor medical assessment), patients: 20 (0.5%) n (%)
  Bleeding-related clinical events that occurred proximal to death, patients: 23 (0.6%) n (%)
  Fatal bleeding events: no fatal bleeding events
[1]; Safety population N = 4089, P-value 0.06
  Bleeding Not Likely Contributing to a Fatal Event, %: (0.1) %
[1]; Safety population N = 4089, P-value 0.18
  Any Bleeding with a Possible Fatal Association, %: (0.6) %
[1]; Safety population N = 4089, P-value 0.76
  Bleeding Likely Contributing to a Fatal Event, %: (0.5) %
[1]; Safety population, listed as icosapent ethyl
  Fatal bleeding events: no fatal bleeding observed in either group
[1]; human, in vivo
  Bleeding TEAEs, %: (11.8) %
  Bleeding-related disorders (bleeding TEAEs), patients: 11.8%
  Patients with any serious bleeding TEAE, % patients: (2.7) %
  Patients with any serious bleeding TEAE, n patients: 111
  Patients with serious CNS bleeding, % patients: (0.3) %
  Patients with serious CNS bleeding, n patients: 14
  Patients with serious Gl bleeding, % patients: (1.5) %
  Patients with serious Gl bleeding, n patients: 62
  Patients with serious other bleeding, % patients: (1.0) %
  Patients with serious other bleeding, n patients: 41
  Serious GI hemorrhage, patients: 0.6%
  Serious bleeding TEAE: Aortic Aneurysm Rupture: 1 (0.0%) n (%)
  Serious bleeding TEAE: Bleeding related disorders: 111 (2.7%) n (%)
  Serious bleeding TEAE: Brain Contusion: 0 (0.0%) n (%)
  Serious bleeding TEAE: Catheter Site Hemorrhage: 0 (0.0%) n (%)
  Serious bleeding TEAE: Central nervous system bleeding: 14 (0.3%) n (%)
  Serious bleeding TEAE: Cerebral Hemorrhage: 0 (0.0%) n (%)
  Serious bleeding TEAE: Cystitis Hemorrhagic: 2 (0.0%) n (%)
  Serious bleeding TEAE: Diverticulitis Intestinal Hemorrhagic: 0 (0.0%) n (%)
  Serious bleeding TEAE: Diverticulum Intestinal Hemorrhagic: 3 (0.1%) n (%)
  Serious bleeding TEAE: Duodenal Ulcer Hemorrhage: 2 (0.0%) n (%)
  Serious bleeding TEAE: Ecchymosis: 1 (0.0%) n (%)
  Serious bleeding TEAE: Epistaxis: 7 (0.2%) n (%)
  Serious bleeding TEAE: Esophageal Hemorrhage: 0 (0.0%) n (%)
  Serious bleeding TEAE: Extravasation Blood: 1 (0.0%) n (%)
  Serious bleeding TEAE: Gastric Hemorrhage: 1 (0.0%) n (%)
  Serious bleeding TEAE: Gastric Ulcer Hemorrhage: 3 (0.1%) n (%)
  Serious bleeding TEAE: Gastrointestinal Angiodysplasia Hemorrhagic: 1 (0.0%) n (%)
  Serious bleeding TEAE: Gastrointestinal bleeding: 62 (1.5%) n (%)
  Serious bleeding TEAE: Genital Hemorrhage: 1 (0.0%) n (%)
  Serious bleeding TEAE: Hemarthrosis: 0 (0.0%) n (%)
  Serious bleeding TEAE: Hematemesis: 3 (0.1%) n (%)
  Serious bleeding TEAE: Hematochezia: 1 (0.0%) n (%)
  Serious bleeding TEAE: Hematoma: 1 (0.0%) n (%)
  Serious bleeding TEAE: Hemoptysis: 1 (0.0%) n (%)
  Serious bleeding TEAE: Hemorrhagic Anemia: 4 (0.1%) n (%)
  Serious bleeding TEAE: Hemorrhagic Duodenitis: 0 (0.0%) n (%)
  Serious bleeding TEAE: Hemorrhagic Transformation Stroke: 1 (0.0%) n (%)
  Serious bleeding TEAE: Hemorrhoidal Hemorrhage: 3 (0.1%) n (%)
  Serious bleeding TEAE: Hemothorax: 1 (0.0%) n (%)
  Serious bleeding TEAE: Immune Thrombocytopenic Purpura: 0 (0.0%) n (%)
  Serious bleeding TEAE: Intra-Abdominal Hemorrhage: 1 (0.0%) n (%)
  Serious bleeding TEAE: Intracranial Hemorrhage: 0 (0.0%) n (%)
  Serious bleeding TEAE: Large Intestinal Hemorrhage: 1 (0.0%) n (%)
  Serious bleeding TEAE: Lower Gastrointestinal Hemorrhage: 5 (0.1%) n (%)
  Serious bleeding TEAE: Mallory-Weiss Syndrome: 1 (0.0%) n (%)
  Serious bleeding TEAE: Melaena: 3 (0.1%) n (%)
  Serious bleeding TEAE: Menorrhagia: 1 (0.0%) n (%)
  Serious bleeding TEAE: Mouth Hemorrhage: 0 (0.0%) n (%)
  Serious bleeding TEAE: Other bleeding: 41 (1.0%) n (%)
  Serious bleeding TEAE: Pancreatitis Hemorrhagic: 1 (0.0%) n (%)
  Serious bleeding TEAE: Peptic Ulcer Hemorrhage: 1 (0.0%) n (%)
  Serious bleeding TEAE: Pericardial Hemorrhage: 0 (0.0%) n (%)
  Serious bleeding TEAE: Post Procedural Hematoma: 1 (0.0%) n (%)
  Serious bleeding TEAE: Post Procedural Hematuria: 0 (0.0%) n (%)
  Serious bleeding TEAE: Post Procedural Hemorrhage: 5 (0.1%) n (%)
  Serious bleeding TEAE: Renal Hemorrhage: 0 (0.0%) n (%)
  Serious bleeding TEAE: Retinal Hemorrhage: 1 (0.0%) n (%)
  Serious bleeding TEAE: Retroperitoneal Hematoma: 0 (0.0%) n (%)
  Serious bleeding TEAE: Retroperitoneal Hemorrhage: 1 (0.0%) n (%)
  Serious bleeding TEAE: Shock Hemorrhagic: 2 (0.0%) n (%)
  Serious bleeding TEAE: Subarachnoid Hemorrhage: 2 (0.0%) n (%)
  Serious bleeding TEAE: Subdural Hemorrhage: 2 (0.0%) n (%)
  Serious bleeding TEAE: Traumatic Hematoma: 2 (0.0%) n (%)
  Serious bleeding TEAE: Traumatic Intracranial Hemorrhage: 0 (0.0%) n (%)
  Serious bleeding TEAE: Ulcer Hemorrhage: 1 (0.0%) n (%)
  Serious bleeding TEAE: Upper Gastrointestinal Hemorrhage: 3 (0.1%) n (%)
  Serious bleeding TEAE: Urinary Bladder Hemorrhage: 1 (0.0%) n (%)
  Serious bleeding TEAEs, %: (2.7) %
  Serious bleeding TEAEs, patients: 2.7%
  Serious bleeding adverse event - Epistaxis, % patients: (0.2) %
  Serious bleeding adverse event - Epistaxis, n patients: 7
  Serious bleeding adverse event - Gl hemorrhage, % patients: (0.6) %
  Serious bleeding adverse event - Gl hemorrhage, n patients: 26
  Serious bleeding adverse event - Hematuria, % patients: (0.2) %
  Serious bleeding adverse event - Hematuria, n patients: 8
  Serious bleeding adverse event - Rectal hemorrhage, % patients: (0.2) %
  Serious bleeding adverse event - Rectal hemorrhage, n patients: 10
  Serious bleeding adverse event - Subdural hematoma, % patients: (0.2) %
  Serious bleeding adverse event - Subdural hematoma, n patients: 9
  Serious central nervous system bleeding, patients: 0.3%
  Serious gastrointestinal bleeding, patients: 1.5%
  TEAE of special interest: Bleeding-related disorders, %: (11.8) %
  TEAE of special interest: Central nervous system bleeding, %: (0.5) %
  TEAE of special interest: Gastrointestinal bleeding, %: (3.1) %
  TEAE of special interest: Other bleeding, %: (9.2) %
[1]; human, in vivo, 4.9 years
  Serious bleeding TEAE: Gastrointestinal Hemorrhage: 26 (0.6%) n (%)
  Serious bleeding TEAE: Hematuria: 8 (0.2%) n (%)
  Serious bleeding TEAE: Rectal Hemorrhage: 10 (0.2%) n (%)
  Serious bleeding TEAE: Subdural Hematoma: 9 (0.2%) n (%)
[1]; on treatment: Clopidogrel, ITT
  Patients with any bleeding/at risk: 124/951
[2]; LDL-C at one year
  Key secondary endpoint, HR AMR101 group versus placebo patients with an increase in LDL-C: 0.80
  Key secondary endpoint, HR AMR101 group versus placebo patients with no change or a decrease in LDL-C: 0.74
  Primary endpoint, HR AMR101 group versus placebo patients with an increase in LDL-C: 0.79
  Primary endpoint, HR AMR101 group versus placebo patients with no change or a decrease in LDL-C: 0.79
[2]; hsCRP at two years
  Key secondary endpoint, HR AMR101 group versus placebo patients with an increase in hsCRP: 0.83
  Key secondary endpoint, HR AMR101 group versus placebo patients with no change or a decrease in hsCRP: 0.85
  Primary endpoint, HR AMR101 group versus placebo patients with an increase in hsCRP: 0.79
  Primary endpoint, HR AMR101 group versus placebo patients with no change or a decrease in hsCRP: 0.83
